In patent publication US20100267561A1, “HERBICIDAL PYRIDAZINONE DERIVATIVES” (priority 2007, published 2010):

Key:
Format in all cases: in vivo
[1] = system: Italian ryegrass (Lolium multiflorum); assay: Test B pre-/postemergence plant response
How it was run: (§1)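 Visual scoring from 0 (no effect) to 100 (complete control) against untreated controls was done 13 to 15 days after greenhouse treatment. Chemicals were formulated in a surfactant-containing non-phytotoxic solvent and applied to soil preemergence or to 1- to 4-leaf (2-18 cm) plants postemergence.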

[2] = system: bermudagrass (Cynodon dactylon); assay: Test B pre-/postemergence plant response
How it was run: as §1

[3] = system: catchweed bedstraw (Galium aparine); assay: Test B pre-/postemergence plant response; conditions: Preemergence
How it was run: as §1

[4] = system: giant foxtail (Setaria faberii); assay: Test B pre-/postemergence plant response
How it was run: as §1

[5] = system: goosegrass (Eleusine indica); assay: Test B pre-/postemergence plant response
How it was run: as §1

[6] = system: johnsongrass (Sorghum halepense); assay: Test B pre-/postemergence plant response
How it was run: as §1

[7] = system: kochia (Kochia scoparia); assay: Test B pre-/postemergence plant response; conditions: Postemergence
How it was run: as §1

[8] = system: lambsquarters (Chenopodium album); assay: Test B pre-/postemergence plant response; conditions: Postemergence
How it was run: as §1

[9] = system: large crabgrass (Digitaria sanguinalis); assay: Test B pre-/postemergence plant response
How it was run: as §1

[10] = system: morningglory (Ipomoea coccinea); assay: Test B pre-/postemergence plant response
How it was run: as §1

[11] = system: pigweed (Amaranthus retroflexus); assay: Test B pre-/postemergence plant response
How it was run: as §1

[12] = system: soybean (Glycine max); assay: Test B pre-/postemergence plant response
How it was run: as §1

[13] = system: velvetleaf (Abutilon theophrasti); assay: Test B pre-/postemergence plant response
How it was run: as §1

[14] = system: rice (Oryza sativa); assay: Test B flooded paddy test plant response
How it was run: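 Paddy-water application to 2-leaf plants in pots held under 3 cm of flooding; response is a 0–100 visual control rating against controls after 13 to 15 days, and a dash marks a missing result.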

[15] = Postemergence, 31 g ai/ha, scale 0 to 100, 0 no effect, 100 complete control
[16] = Postemergence, 62 g ai/ha, scale 0 to 100
[17] = Postemergence, 125 g ai/ha, scale 0 to 100
[18] = Postemergence, 250 g ai/ha, scale 0 to 100
[19] = Preemergence, 31 g ai/ha, 0 to 100 scale, 0 no effect, 100 complete control
[20] = Preemergence, 62 g ai/ha, scale 0 to 100
[21] = Preemergence, 125 g ai/ha, scale 0 to 100
[22] = Preemergence, 250 g ai/ha, scale 0 to 100
[23] = 31 g ai/ha, scale 0 to 100, 0 no effect, 100 complete control

## CCc1cc(-c2ccc(C(F)(F)F)cc2)nn1-c1c(O)c(C)nn(C)c1=O [Compound 16]
[1]; [15]
  Plant response rating, Ryegrass, Italian: 100
[1]; [16]
  Plant response rating, Ryegrass, Italian: 100
[1]; [17]
  Plant response rating, Ryegrass, Italian: 100
[1]; [18]
  Plant response rating, Ryegrass, Italian: 100
[1]; [19]
  Plant response rating, Ryegrass, Italian: 100
[1]; [20]
  Plant response rating, Ryegrass, Italian: 100
[1]; [21]
  Plant response rating, Ryegrass, Italian: 100
[1]; [22]
  Plant response rating, Ryegrass, Italian: 100
[2]; 250 g ai/ha, preemergence, 0-100 scale
  Bermudagrass plant response rating: 100
[2]; [15]
  Plant response rating, Bermudagrass: 65
[2]; [16]
  Plant response rating, Bermudagrass: 100
[2]; [17]
  Plant response rating, Bermudagrass: 100
[2]; [18]
  Plant response rating, Bermudagrass: 100
[2]; [19]
  Plant response rating, Bermudagrass: 0
[2]; [20]
  Plant response rating, Bermudagrass: 0
[2]; [21]
  Plant response rating, Bermudagrass: 98
[3]; 31 g ai/ha, 0 to 100 scale, 0 no effect, 100 complete control
  Plant response rating, Galium: 0
[3]; 62 g ai/ha, scale 0 to 100
  Plant response rating, Galium: 0
[3]; 125 g ai/ha, scale 0 to 100
  Plant response rating, Galium: 0
[3]; 250 g ai/ha, scale 0 to 100
  Plant response rating, Galium: 0
[4]; [15]
  Plant response rating, Foxtail, Giant: 85
[4]; [16]
  Plant response rating, Foxtail, Giant: 98
[4]; [17]
  Plant response rating, Foxtail, Giant: 100
[4]; [18]
  Plant response rating, Foxtail, Giant: 100
[4]; [19]
  Plant response rating, Foxtail, Giant: 0
[4]; [20]
  Plant response rating, Foxtail, Giant: 0
[4]; [21]
  Plant response rating, Foxtail, Giant: 40
[4]; [22]
  Plant response rating, Foxtail, Giant: 70
[5]; [15]
  Plant response rating, Goosegrass: 60
[5]; [16]
  Plant response rating, Goosegrass: 65
[5]; [17]
  Plant response rating, Goosegrass: 75
[5]; [18]
  Plant response rating, Goosegrass: 80
[5]; [19]
  Plant response rating, Goosegrass: 0
[5]; [20]
  Plant response rating, Goosegrass: 0
[5]; [21]
  Plant response rating, Goosegrass: 50
[5]; [22]
  Plant response rating, Goosegrass: 60
[6]; [15]
  Plant response rating, Johnsongrass: 98
[6]; [16]
  Plant response rating, Johnsongrass: 100
[6]; [17]
  Plant response rating, Johnsongrass: 100
[6]; [18]
  Plant response rating, Johnsongrass: 100
[6]; [19]
  Plant response rating, Johnsongrass: 25
[6]; [20]
  Plant response rating, Johnsongrass: 70
[6]; [21]
  Plant response rating, Johnsongrass: 100
[6]; [22]
  Plant response rating, Johnsongrass: 100
[7]; [23]
  Plant response rating, Kochia: 0
[7]; 62 g ai/ha, scale 0 to 100
  Plant response rating, Kochia: 65
[7]; 125 g ai/ha, scale 0 to 100
  Plant response rating, Kochia: 98
[7]; 250 g ai/ha, scale 0 to 100
  Plant response rating, Kochia: 100
[8]; [23]
  Plant response rating, Lambsquarters: 0
[8]; 62 g ai/ha, scale 0 to 100
  Plant response rating, Lambsquarters: 0
[8]; 125 g ai/ha, scale 0 to 100
  Plant response rating, Lambsquarters: 0
[8]; 250 g ai/ha, scale 0 to 100
  Plant response rating, Lambsquarters: 0
[9]; [15]
  Plant response rating, Crabgrass, Large: 95
[9]; [16]
  Plant response rating, Crabgrass, Large: 95
[9]; [17]
  Plant response rating, Crabgrass, Large: 100
[9]; [18]
  Plant response rating, Crabgrass, Large: 100
[9]; [19]
  Plant response rating, Crabgrass, Large: 0
[9]; [20]
  Plant response rating, Crabgrass, Large: 0
[9]; [21]
  Plant response rating, Crabgrass, Large: 20
[9]; [22]
  Plant response rating, Crabgrass, Large: 40
[10]; [15]
  Plant response rating, Morningglory: 0
[10]; [16]
  Plant response rating, Morningglory: 0
[10]; [17]
  Plant response rating, Morningglory: 0
[10]; [18]
  Plant response rating, Morningglory: 0
[10]; [19]
  Plant response rating, Morningglory: 0
[10]; [20]
  Plant response rating, Morningglory: 0
[10]; [21]
  Plant response rating, Morningglory: 0
[10]; [22]
  Plant response rating, Morningglory: 0
[11]; [15]
  Plant response rating, Pigweed: 0
[11]; [16]
  Plant response rating, Pigweed: 0
[11]; [17]
  Plant response rating, Pigweed: 0
[11]; [18]
  Plant response rating, Pigweed: 0
[11]; [20]
  Plant response rating, Pigweed: 0
[11]; [21]
  Plant response rating, Pigweed: 0
[11]; [22]
  Plant response rating, Pigweed: 0
[12]; [15]
  Plant response rating, Soybean: 0
[12]; [16]
  Plant response rating, Soybean: 0
[12]; [17]
  Plant response rating, Soybean: 0
[12]; [18]
  Plant response rating, Soybean: 0
[12]; [22]
  Plant response rating, Soybean: 0
[13]; [15]
  Plant response rating, Velvetleaf: 0
[13]; [16]
  Plant response rating, Velvetleaf: 0
[13]; [17]
  Plant response rating, Velvetleaf: 0
[13]; [18]
  Plant response rating, Velvetleaf: 0
[13]; [19]
  Plant response rating, Velvetleaf: 0
[13]; [20]
  Plant response rating, Velvetleaf: 0
[13]; [21]
  Plant response rating, Velvetleaf: 0
[13]; [22]
  Plant response rating, Velvetleaf: 0
[14]; Flood (flooded paddy test), 62 g ai/ha, scale 0 to 100, 0 no effect, 100 complete control
  Plant response rating, Rice: 20
[14]; Flood (flooded paddy test), 125 g ai/ha, scale 0 to 100, 0 no effect, 100 complete control
  Plant response rating, Rice: 45
[14]; Flood (flooded paddy test), 250 g ai/ha, scale 0 to 100, 0 no effect, 100 complete control
  Plant response rating, Rice: 80
[14]; Flood, 31 g ai/ha, scale 0 to 100
  Plant response rating, Rice: 0
